Experimental data published in patent publication US20140227366A1, “CARRIER MATERIAL FOR IMPROVING THE PERSISTANCE OF BIOCIDES” (priority 2011, published 2014).

System: aphids (Aphis craccivora)
Experiment: Efficacy/penetration depth into soils: aphid mortality on chickpeas planted in soil zones from a watered soil column
Assay type: in vivo
Conditions: top 6 cm soil with 0.5 mg/ai TMX, watering rate 255 l/m^2, chickpeas infected with Aphis craccivora, average of multiple experiments
Protocol: The penetration depth of TMX with and without the improvement system was investigated using the test setup described below.
In this connection, a cylinder (diameter approx. 5.5 cm) was filled to approx. 21 cm with liquid-saturated soil. The soil was divided into three zones of 7 cm each, which were called Zone I (uppermost soil layer), Zone II (middle soil layer), and Zone III (bottommost soil layer).
Subsequently, the cylinder was filled up with 6 cm soil that had been mixed once with 0.5 mg/ai TMX (comparison test), and once with 6 cm soil with 0.5 mg/ai TMX and 2 kg/m^2 improvement system (invention example).
The cylinder was now watered (watering rate 255 l/m^2) until the water had reached the bottom, i.e. complete watering had been achieved.
Subsequently, the soil of Zone I (uppermost zone) to Zone III (bottommost zone) was removed, and chickpeas that had been infected with aphids (Aphis craccivora) were planted in the soil. Now the mortality rate of the aphids was measured, as listed in Table I (average values on the basis of multiple experiments).

CN1COCN(Cc2cnc(Cl)s2)/C1=N/[N+](=O)[O-] [Comparison example, 3-[(2-chloro-1,3-thiazol-5-yl)methyl]-5-methyl-N-nitro-1,3,5-oxadioazinan-4-imine]
mortality rate of the aphids, Zone I (Zone I (uppermost soil layer, 7 cm)): 93% | mortality rate of the aphids, Zone II (Zone II (middle soil layer, 7 cm)): 70% | mortality rate of the aphids, Zone III (Zone III (bottommost soil layer, 7 cm)): 5%
